The source of these data is US10717716B2, “1,3,4-oxadiazole derivative compounds as histone deacetylase 6 inhibitor, and the pharmaceutical composition comprising the same” (Chong Kun Dang Pharmaceutical Corp., priority 2015, dated 2020).

This experiment deals with T1, human recombinant HDAC6 (Homo sapiens, UniProt Q9UBN7).
T1 construct: purchased Calbiochem 382180
T1 sequence (Q9UBN7 1-1215): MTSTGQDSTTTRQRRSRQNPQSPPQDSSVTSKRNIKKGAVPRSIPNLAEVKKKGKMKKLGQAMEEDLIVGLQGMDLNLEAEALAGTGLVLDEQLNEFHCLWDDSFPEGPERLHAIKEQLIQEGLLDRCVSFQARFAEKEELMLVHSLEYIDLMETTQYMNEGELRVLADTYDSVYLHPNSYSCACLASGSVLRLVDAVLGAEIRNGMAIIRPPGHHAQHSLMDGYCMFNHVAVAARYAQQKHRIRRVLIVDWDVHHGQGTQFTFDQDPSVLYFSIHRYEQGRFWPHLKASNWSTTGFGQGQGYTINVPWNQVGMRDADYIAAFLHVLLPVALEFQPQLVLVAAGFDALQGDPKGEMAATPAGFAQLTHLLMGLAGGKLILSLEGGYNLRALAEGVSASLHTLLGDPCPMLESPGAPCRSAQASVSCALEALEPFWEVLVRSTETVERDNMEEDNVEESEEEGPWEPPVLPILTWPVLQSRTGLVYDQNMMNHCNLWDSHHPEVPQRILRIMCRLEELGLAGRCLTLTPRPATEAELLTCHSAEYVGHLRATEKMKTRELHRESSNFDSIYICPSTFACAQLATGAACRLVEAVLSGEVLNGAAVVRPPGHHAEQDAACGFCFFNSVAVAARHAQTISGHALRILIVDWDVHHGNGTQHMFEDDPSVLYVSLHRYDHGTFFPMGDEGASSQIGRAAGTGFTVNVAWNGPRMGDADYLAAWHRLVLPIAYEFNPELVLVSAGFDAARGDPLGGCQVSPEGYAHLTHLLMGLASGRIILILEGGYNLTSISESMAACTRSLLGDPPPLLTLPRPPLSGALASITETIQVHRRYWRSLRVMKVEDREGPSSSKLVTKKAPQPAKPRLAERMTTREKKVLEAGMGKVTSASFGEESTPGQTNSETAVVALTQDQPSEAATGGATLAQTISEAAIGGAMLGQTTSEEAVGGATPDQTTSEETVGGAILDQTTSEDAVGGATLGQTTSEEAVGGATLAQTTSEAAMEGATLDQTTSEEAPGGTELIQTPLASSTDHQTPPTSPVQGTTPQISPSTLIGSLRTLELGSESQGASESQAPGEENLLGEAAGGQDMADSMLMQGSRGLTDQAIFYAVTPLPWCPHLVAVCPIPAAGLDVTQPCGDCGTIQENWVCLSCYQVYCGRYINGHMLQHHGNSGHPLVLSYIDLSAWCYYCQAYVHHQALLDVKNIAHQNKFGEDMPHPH
The experiment in a line: HDAC6 enzyme activity inhibition assay (HDAC Fluorimetric Drug Discovery Kit). Type of experiment: biochemical. The following applies: for HDAC6 selectivity (fold): HDAC6 over HDAC1; for IC50: human recombinant HDAC6, same protocol as HDAC1, read-out: HDAC6. The procedure, abridged:
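Fluorimetric deacetylase assay: 5-fold serial compound dilutions, 0.3 μg recombinant human enzyme (HDAC1 or HDAC6, same protocol), 10 μM Fluor de Lys-SIRT1 substrate, 60 min at 30 °C. Signal developed 30 min, measured at 360/460 nm; IC50 values derived.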

Take `O=C(N1CCS(=O)(=O)CC1)N(Cc1ccc(-c2nnc(C(F)F)o2)cc1)c1ccc(-c2ccc3c(c2)OCO3)cc1` [Compound 21494, N-(4-(benzo[d][1,3]dioxol-5-yl)phenyl)-N-(4-(5-(difluoromethyl)-1,3,4-oxadiazol-2-yl)benzyl)thiomorpholine-4-carboxamide 1,1-dioxide]: the “HDAC6 selectivity (fold)” value turned out to be 89 fold and the IC50 was found to be 112 nM.
The matching figures for `O=C(N1CCC2(CC1)CNC2)N(Cc1ccc(-c2nnc(C(F)F)o2)cc1F)c1ccccc1` [Compound 21495, N-(4-(5-(difluoromethyl)-1,3,4-oxadiazol-2-yl)-2-fluorobenzyl)-N-phenyl-2,7-diazaspiro[3.5]nonane-7-carboxamide]: 294 fold and 34 nM.
In the case of `CN1CC2(CCN(C(=O)N(Cc3ccc(-c4nnc(C(F)F)o4)cc3F)c3ccccc3)CC2)C1` [Compound 21496, N-(4-(5-(difluoromethyl)-1,3,4-oxadiazol-2-yl)-2-fluorobenzyl)-2-methyl-N-phenyl-2,7-diazaspiro[3.5]nonane-7-carboxamide], the “HDAC6 selectivity (fold)” value was found to be 500 fold and the IC50 was found to be 20 nM.
The matching figures for `O=C(N1CC2(CCNCC2)C1)N(Cc1ccc(-c2nnc(C(F)F)o2)cc1F)c1ccccc1` [Compound 21497, N-(4-(5-(difluoromethyl)-1,3,4-oxadiazol-2-yl)-2-fluorobenzyl)-N-phenyl-2,7-diazaspiro[3.5]nonane-2-carboxamide]: 294 fold and 34 nM.
With `CN1CCC2(CC1)CN(C(=O)N(Cc1ccc(-c3nnc(C(F)F)o3)cc1F)c1ccccc1)C2` [Compound 21498, N-(4-(5-(difluoromethyl)-1,3,4-oxadiazol-2-yl)-2-fluorobenzyl)-7-methyl-N-phenyl-2,7-diazaspiro[3.5]nonane-2-carboxamide], the “HDAC6 selectivity (fold)” value stood at 714 fold and the IC50 is 14 nM.
The matching figures for `CCN1CCC2(CC1)CN(C(=O)N(Cc1ccc(-c3nnc(C(F)F)o3)cc1F)c1ccccc1)C2` [Compound 21499, N-(4-(5-(difluoromethyl)-1,3,4-oxadiazol-2-yl)-2-fluorobenzyl)-7-ethyl-N-phenyl-2,7-diazaspiro[3.5]nonane-2-carboxamide]: 588 fold and 17 nM.
On the same counts, the results for `CC(=O)N1CCC2(CC1)CN(C(=O)N(Cc1ccc(-c3nnc(C(F)F)o3)cc1F)c1ccccc1)C2` [Compound 21500, 7-Acetyl-N-(4-(5-(difluoromethyl)-1,3,4-oxadiazol-2-yl)-2-fluorobenzyl)-N-phenyl-2,7-diazaspiro[3.5]nonane-2-carboxamide] are 400 fold and 25 nM.
The matching figures for `CS(=O)(=O)N1CCC2(CC1)CN(C(=O)N(Cc1ccc(-c3nnc(C(F)F)o3)cc1F)c1ccccc1)C2` [Compound 21501, N-(4-(5-(difluoromethyl)-1,3,4-oxadiazol-2-yl)-2-fluorobenzyl)-7-(methylsulfonyl)-N-phenyl-2,7-diazaspiro[3.5]nonane-2-carboxamide]: 357 fold and 28 nM.
With `O=C(N1CCS(=O)(=O)CC1)N(Cc1ccc(-c2nnc(C(F)F)o2)cc1)c1cccc(-c2ccccc2)c1` [Compound 21502, N-([1,1′-biphenyl]-3-yl)-N-(4-(5-(difluoromethyl)-1,3,4-oxadiazol-2-yl)benzyl)thiomorpholine-4-carboxamide 1,1-dioxide], the “HDAC6 selectivity (fold)” value is given as 36 fold and the IC50 was found to be 279 nM.
The matching figures for `CCc1ccc(N(Cc2ccc(-c3nnc(C(F)(F)F)o3)cc2F)C(=O)N2CCS(=O)(=O)CC2)cc1` [Compound 21511, N-(4-ethylphenyl)-N-(2-fluoro-4-(5-(trifluoromethyl)-1,3,4-oxadiazol-2-yl)benzyl)thiomorpholine-4-carboxamide 1,1-dioxide]: 30 fold and 332 nM.
Consider `CCc1ccc(N(Cc2ccc(-c3nnc(C(F)F)o3)cc2F)C(=O)N2CCS(=O)(=O)CC2)cc1` [Compound 21512, N-(4-(5-(difluoromethyl)-1,3,4-oxadiazol-2-yl)-2-fluorobenzyl)-N-(4-ethylphenyl)thiomorpholine-4-carboxamide 1,1-dioxide], for which the “HDAC6 selectivity (fold)” value came to 108 fold and the IC50 worked out at 93 nM.
On the same counts, the results for `O=C(N1CCS(=O)(=O)CC1)N(Cc1ccc(-c2nnc(C(F)(F)F)o2)cc1F)c1ccc(OC(F)(F)F)cc1` [Compound 21513, N-(2-fluoro-4-(5-(trifluoromethyl)-1,3,4-oxadiazol-2-yl)benzyl)-N-(4-(trifluoromethoxy)phenyl)thiomorpholine-4-carboxamide 1,1-dioxide] are 47 fold and 212 nM.
The matching figures for `O=C(N1CCS(=O)(=O)CC1)N(Cc1ccc(-c2nnc(C(F)F)o2)cc1F)c1ccc(OC(F)(F)F)cc1` [Compound 21514, N-(4-(5-(difluoromethyl)-1,3,4-oxadiazol-2-yl)-2-fluorobenzyl)-N-(4-(trifluoromethoxy)phenyl)thiomorpholine-4-carboxamide 1,1-dioxide]: 286 fold and 35 nM.
On the same counts, the results for `CN1CCN(Cc2ccc(N(Cc3ccc(-c4nnc(C(F)(F)F)o4)cc3F)C(=O)N3CCS(=O)(=O)CC3)cc2)CC1` [Compound 21515, N-(2-fluoro-4-(5-(trifluoromethyl)-1,3,4-oxadiazol-2-yl)benzyl)-N-(4-((4-methylpiperazin-1-yl)methyl)phenyl)thiomorpholine-4-carboxamide 1,1-dioxide] are 115 fold and 87 nM.
`CN1CCN(Cc2ccc(N(Cc3ccc(-c4nnc(C(F)F)o4)cc3F)C(=O)N3CCS(=O)(=O)CC3)cc2)CC1` [Compound 21516, N-(4-(5-(difluoromethyl)-1,3,4-oxadiazol-2-yl)-2-fluorobenzyl)-N-(4-((4-methylpiperazin-1-yl)methyl)phenyl)thiomorpholine-4-carboxamide 1,1-dioxide]: the “HDAC6 selectivity (fold)” value is recorded as 250 fold and the IC50 worked out at 40 nM.
On the same counts, the results for `O=C(N1CCS(=O)(=O)CC1)N(Cc1ccc(-c2nnc(C(F)F)o2)cc1F)c1ccc(-c2cccnc2)cc1` [Compound 21518, N-(4-(5-(difluoromethyl)-1,3,4-oxadiazol-2-yl)-2-fluorobenzyl)-N-(4-(pyridin-3-yl)phenyl)thiomorpholine-4-carboxamide 1,1-dioxide] are 400 fold and 25 nM.
On the same counts, the results for `O=C(N1CCS(=O)(=O)CC1)N(Cc1ccc(-c2nnc(C(F)F)o2)cc1F)c1ccc(-c2ccncc2)cc1` [Compound 21520, N-(4-(5-(difluoromethyl)-1,3,4-oxadiazol-2-yl)-2-fluorobenzyl)-N-(4-(pyridin-4-yl)phenyl)thiomorpholine-4-carboxamide 1,1-dioxide] are 159 fold and 63 nM.
The matching figures for `Cn1ccc2cc(-c3ccc(N(Cc4ccc(-c5nnc(C(F)(F)F)o5)cc4F)C(=O)N4CCS(=O)(=O)CC4)cc3)ccc21` [Compound 21521, N-(2-fluoro-4-(5-(trifluoromethyl)-1,3,4-oxadiazol-2-yl)benzyl)-N-(4-(1-methyl-1H-indol-5-yl)phenyl)thiomorpholine-4-carboxamide 1,1-dioxide]: 18 fold and 565 nM.
With `O=C(N1CC2(COC2)C1)N(Cc1ccc(-c2nnc(C(F)F)o2)cc1F)c1ccccc1` [Compound 21522, N-(4-(5-(difluoromethyl)-1,3,4-oxadiazol-2-yl)-2-fluorobenzyl)-N-phenyl-2-oxa-6-azaspiro[3.3]heptane-6-carboxamide], the “HDAC6 selectivity (fold)” value is 455 fold and the IC50 amounted to 22 nM.
The matching figures for `CN1CCN(C(=O)N(Cc2ccc(-c3nnc(C(F)F)o3)cn2)c2ccccc2)CC1` [Compound 21527, N-((5-(5-(difluoromethyl)-1,3,4-oxadiazol-2-yl)pyridin-2-yl)methyl)-4-methyl-N-phenylpiperazine-1-carboxamide]: 357 fold and 28 nM.
